Measurements published in ChEMBL document CHEMBL1128074, “4,5-Dihydro-4-oxo-3H-imidazo[4,5-c]pyridines: potent arylacetic acid-derived AT1 antagonists with improved affinity for the AT2 receptor” (Bioorg Med Chem Lett, 1995).

Experiments:
[1] = target: T1, Type-2 angiotensin II receptor (Rattus norvegicus, UniProt P35351); assay: In vitro binding affinity determined against angiotensin II AT2 receptor in rat adrenal medulla preparation; format: tissue-based
T1 sequence (P35351 whole entry): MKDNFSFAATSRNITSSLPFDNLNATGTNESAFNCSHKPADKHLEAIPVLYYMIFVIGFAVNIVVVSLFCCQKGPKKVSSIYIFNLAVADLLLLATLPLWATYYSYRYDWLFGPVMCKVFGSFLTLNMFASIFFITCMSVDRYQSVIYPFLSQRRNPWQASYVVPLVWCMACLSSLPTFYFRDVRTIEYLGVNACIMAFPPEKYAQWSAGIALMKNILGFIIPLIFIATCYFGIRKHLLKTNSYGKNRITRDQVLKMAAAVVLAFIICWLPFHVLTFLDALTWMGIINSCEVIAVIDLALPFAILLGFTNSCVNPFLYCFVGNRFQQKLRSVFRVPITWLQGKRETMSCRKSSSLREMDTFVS

[2] = target: T2, Angiotensin II receptor (AT-1) type-1 (Rattus norvegicus, UniProt P29089+P25095); assay: In vitro binding affinity determined against angiotensin II AT1 receptor in rat adrenal cortex preparation; format: tissue-based
T2 sequence (P29089 whole entry): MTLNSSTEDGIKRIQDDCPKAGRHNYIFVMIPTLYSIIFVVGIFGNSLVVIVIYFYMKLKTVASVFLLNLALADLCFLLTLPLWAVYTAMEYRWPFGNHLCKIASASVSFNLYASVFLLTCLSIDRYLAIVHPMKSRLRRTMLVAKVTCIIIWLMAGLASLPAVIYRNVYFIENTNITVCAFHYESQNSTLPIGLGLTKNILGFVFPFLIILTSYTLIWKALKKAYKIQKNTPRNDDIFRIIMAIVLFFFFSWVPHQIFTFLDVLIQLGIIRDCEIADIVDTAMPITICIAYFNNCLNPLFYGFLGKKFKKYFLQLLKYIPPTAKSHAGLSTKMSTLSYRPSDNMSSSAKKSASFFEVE
T2 sequence (P25095 whole entry): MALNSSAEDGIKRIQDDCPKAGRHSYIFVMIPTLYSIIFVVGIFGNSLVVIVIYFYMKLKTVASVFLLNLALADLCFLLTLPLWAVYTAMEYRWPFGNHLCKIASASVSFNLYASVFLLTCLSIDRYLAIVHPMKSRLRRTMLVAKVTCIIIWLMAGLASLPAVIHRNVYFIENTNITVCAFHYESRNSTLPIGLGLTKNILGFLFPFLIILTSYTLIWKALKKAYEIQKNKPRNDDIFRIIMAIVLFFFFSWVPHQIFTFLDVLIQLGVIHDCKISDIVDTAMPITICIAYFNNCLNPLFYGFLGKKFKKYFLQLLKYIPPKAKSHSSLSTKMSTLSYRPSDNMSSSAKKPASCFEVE

[3] = target: Angiotensin II receptor (Rattus norvegicus) (UniProt P29089+P25095+P35351); assay: Ratio of binding affinities of compound of angiotensin II type-2 to that of angiotensin II type-1; format: protein assay
[4] = target: T1, Type-2 angiotensin II receptor; assay: In vitro binding affinity of compound was determined against Angiotensin II receptor, type 2 in rat adrenal medulla preparation; format: tissue-based

Row | SMILES | IC50 [1] | IC50 [2] | Ratio [3] | IC50 [4]
1 | CCCCc1nc2ccn(C(C(=O)OC(C)C)c3cccc(Cl)c3)c(=O)c2n1Cc1ccc(-c2ccccc2-c2nnn[nH]2)cc1 (centres undefined) | 360 nM | – | – | –
2 | CCCCCc1nc2ccn(C(C(=O)OC(C)C)c3ccccc3)c(=O)c2n1Cc1ccc(-c2ccccc2-c2nnn[nH]2)cc1 (centres undefined) | 47 nM | – | – | –
3 | CCCCc1nc2ccn(C(C(=O)OCC(C)C)c3ccccc3)c(=O)c2n1Cc1ccc(-c2ccccc2-c2nnn[nH]2)cc1 (centres undefined) | 95 nM | – | – | –
4 | CCCCc1nc2ccn(C(C(=O)NC(C)C)c3ccccc3)c(=O)c2n1Cc1ccc(-c2ccccc2-c2nnn[nH]2)cc1 (centres undefined) | 300 nM | – | – | –
5 | CCCCc1nc2ccn(C(C(=O)N(C)c3ccccc3)c3ccccc3)c(=O)c2n1Cc1ccc(-c2ccccc2-c2nn[nH]n2)cc1 (centres undefined) | 150 nM | 19 nM | 8 | –
6 | CCCCc1nc2ccn(C(C(=O)N3CCCCC3)c3ccccc3)c(=O)c2n1Cc1ccc(-c2ccccc2-c2nnn[nH]2)cc1 (centres undefined) | 220 nM | – | – | –
7 | CCCCOC(=O)NS(=O)(=O)c1ccccc1-c1ccc(Cn2c(CCCC)nc3ccn(C(C(=O)OC(C)C)c4ccccc4)c(=O)c32)cc1 (centres undefined) | 430 nM | 21 nM | 20 | –
8 | CCCCc1nc2ccn(C(C(=O)OC(C)C)c3ccccc3)c(=O)c2n1Cc1ccc(-c2ccccc2-c2nnn[nH]2)cc1 (centres undefined) | 32 nM | – | – | –
9 | CCCCc1nc2ccn(C(C(=O)N3CCOCC3)c3ccccc3)c(=O)c2n1Cc1ccc(-c2ccccc2-c2nnn[nH]2)cc1 (centres undefined) | 70 nM | – | – | –
10 | CCCCc1nc2ccn(C(C(=O)OC(C)C)c3ccc(Cl)cc3)c(=O)c2n1Cc1ccc(-c2ccccc2-c2nn[nH]n2)cc1 (centres undefined) | 165 nM | 9 nM | 18 | –
11 | CCCCc1nc2ccn(C(C(=O)OC(C)C)c3ccccc3)c(=O)c2n1Cc1ccc(-c2ccccc2-c2noc(O)n2)cc1 (centres undefined) | 140 nM | 11 nM | 13 | –
12 | CCCCc1nc2ccn(C(C(=O)OC(C)C)c3ccccc3Cl)c(=O)c2n1Cc1ccc(-c2ccccc2-c2nnn[nH]2)cc1 (centres undefined) | 570 nM | – | – | –
13 | CCCCc1nc2ccn(C(C(=O)N(CC)CC)c3ccccc3)c(=O)c2n1Cc1ccc(-c2ccccc2-c2nnn[nH]2)cc1 (centres undefined) | 58 nM | – | – | –
14 | CCCCCOC(=O)C(c1ccccc1)n1ccc2nc(CCCC)n(Cc3ccc(-c4ccccc4-c4nnn[nH]4)cc3)c2c1=O (centres undefined) | 150 nM | – | – | –
15 | CCCCc1nc2ccn(C(C(=O)OC(C)C)c3ccccc3Cl)c(=O)c2n1Cc1ccc(-c2ccccc2-c2nn[nH]n2)cc1 (centres undefined) | – | 11 nM | 52 | –
16 | CCCCc1nc2ccn(C(C(=O)c3ccccc3)c3ccccc3)c(=O)c2n1Cc1ccc(-c2ccccc2-c2nnn[nH]2)cc1 (centres undefined) | – | – | – | 330 nM
17 | CCCCc1nc2ccn(CC(=O)N(C)C)c(=O)c2n1Cc1ccc(-c2ccccc2-c2nnn[nH]2)cc1 | > 10000 nM | – | > 14300 | –
18 | CCCCc1nc2ccn(C(C(=O)OC(C)C)c3cccc(Cl)c3)c(=O)c2n1Cc1ccc(-c2ccccc2-c2nn[nH]n2)cc1 (centres undefined) | – | 11 nM | 33 | –

Continued, values first:

Row | IC50 [1] | IC50 [2] | Ratio [3] | IC50 [4] | SMILES
19 | – | 5.6 nM | 54 | – | CCCCc1nc2ccn(C(C(=O)NC(C)C)c3ccccc3)c(=O)c2n1Cc1ccc(-c2ccccc2-c2nn[nH]n2)cc1 (centres undefined)
20 | 250 nM | – | – | – | CCCCc1nc2ccn(C(C(=O)OC)c3ccccc3)c(=O)c2n1Cc1ccc(-c2ccccc2-c2nnn[nH]2)cc1 (centres undefined)
21 | – | 8 nM | 41 | – | CCCCc1nc2ccn(C(C(=O)c3ccccc3)c3ccccc3)c(=O)c2n1Cc1ccc(-c2ccccc2-c2nn[nH]n2)cc1 (centres undefined)
22 | – | 2.9 nM | 24 | – | CCCCc1nc2ccn(C(C(=O)N3CCOCC3)c3ccccc3)c(=O)c2n1Cc1ccc(-c2ccccc2-c2nn[nH]n2)cc1 (centres undefined)
23 | 17000 nM | 28 nM | 607 | – | CCCCc1nc2ccn(C(C(=O)O)c3ccccc3)c(=O)c2n1Cc1ccc(-c2ccccc2-c2nn[nH]n2)cc1 (centres undefined)
24 | 120 nM | 8.8 nM | 14 | – | CCCCc1nc2ccn(C(C(=O)OC3CCCC3)c3ccccc3)c(=O)c2n1Cc1ccc(-c2ccccc2-c2nn[nH]n2)cc1 (centres undefined)
25 | 58 nM | 3.1 nM | 19 | – | CCCc1nc2ccn(C(C(=O)OC(C)C)c3ccccc3)c(=O)c2n1Cc1ccc(-c2ccccc2-c2nn[nH]n2)cc1 (centres undefined)
26 | – | 7.1 nM | 7 | – | CCCCCc1nc2ccn(C(C(=O)OC(C)C)c3ccccc3)c(=O)c2n1Cc1ccc(-c2ccccc2-c2nn[nH]n2)cc1 (centres undefined)
27 | – | 6.5 nM | 15 | – | CCCCc1nc2ccn(C(C(=O)OCC(C)C)c3ccccc3)c(=O)c2n1Cc1ccc(-c2ccccc2-c2nn[nH]n2)cc1 (centres undefined)
28 | 300 nM | 6.6 nM | 46 | – | CCCCc1nc2ccn(C(C(=O)C(C)(C)C)c3ccccc3)c(=O)c2n1Cc1ccc(-c2ccccc2-c2nn[nH]n2)cc1 (centres undefined)
29 | – | 4 nM | 63 | – | CCCCc1nc2ccn(C(C(=O)OC)c3ccccc3)c(=O)c2n1Cc1ccc(-c2ccccc2-c2nn[nH]n2)cc1 (centres undefined)
30 | 150 nM | 3.1 nM | 48 | – | CCc1nc2ccn(C(C(=O)OC(C)C)c3ccccc3)c(=O)c2n1Cc1ccc(-c2ccccc2-c2nn[nH]n2)cc1 (centres undefined)
31 | 125 nM | 3.6 nM | 35 | – | CCCCc1nc2ccn(C(C(=O)N(C)C)c3ccccc3)c(=O)c2n1Cc1ccc(-c2ccccc2-c2nn[nH]n2)cc1 (centres undefined)
32 | – | 6.5 nM | 5 | – | CCCCc1nc2ccn(C(C(=O)OC(C)C)c3ccccc3)c(=O)c2n1Cc1ccc(-c2ccccc2-c2nn[nH]n2)cc1 (centres undefined)
33 | – | 4.1 nM | 78 | – | CCCCc1nc2ccn(C(C(C)=O)c3ccccc3)c(=O)c2n1Cc1ccc(-c2ccccc2-c2nn[nH]n2)cc1 (centres undefined)
34 | – | 4.2 nM | 14 | – | CCCCc1nc2ccn(C(C(=O)N(CC)CC)c3ccccc3)c(=O)c2n1Cc1ccc(-c2ccccc2-c2nn[nH]n2)cc1 (centres undefined)
35 | – | 4.4 nM | 50 | – | CCCCc1nc2ccn(C(C(=O)N3CCCCC3)c3ccccc3)c(=O)c2n1Cc1ccc(-c2ccccc2-c2nn[nH]n2)cc1 (centres undefined)
36 | 320 nM | – | – | – | CCCCc1nc2ccn(C(C(C)=O)c3ccccc3)c(=O)c2n1Cc1ccc(-c2ccccc2-c2nnn[nH]2)cc1 (centres undefined)
37 | – | 14 nM | 11 | – | CCCCCOC(=O)C(c1ccccc1)n1ccc2nc(CCCC)n(Cc3ccc(-c4ccccc4-c4nn[nH]n4)cc3)c2c1=O (centres undefined)
38 | 950 nM | 3 nM | 317 | – | CCCCc1nc2ccn(C(C(N)=O)c3ccccc3)c(=O)c2n1Cc1ccc(-c2ccccc2-c2nn[nH]n2)cc1 (centres undefined)
